The text below walks through data of patent publication US8435956B2, “Compositions and methods for protecting cells from toxic exposures” (Percitus Biosciences, LLC, priority 2007, dated 2013).

Data set [1] has as its target T1, Calf intestinal alkaline phosphatase (CIAP) (Bos taurus, UniProt P19111).
T1 construct: purchased Sigma
As to the kind of experiment: Alkaline phosphatase dephosphorylation, free sulfhydryl groups measured with DTNB (Ellman's Reagent) at A412. Type of data set: biochemical. The procedure: Assays were performed to verify the ability of alkaline phosphatase to dephosphorylate compound (7) to create sulfydryl reactive groups. Calf intestinal alkaline phosphatase (CIAP, Sigma) was diluted in phosphate buffered saline (PBS) to 250 units/ml, and frozen in tubes containing 100 μl aliquots.
A second assay was performed to examine the ability of alkaline phosphatase to dephosphorylate compound (7) to create sulfydryl reactive groups. A 12.5 mM solution of Compound 7 was made (4 mg/ml) and used in the test reactions.
A time course of dephosphorylation was also performed using Compound 7, following the same reaction conditions as in Table 3.
Background: DTNB colorimetry detects thiols as they appear.

The conditions of data set [2]: randomized Phase III human trials: head and neck cancer, lung cancer, carboplatin myelosuppression, rectal cancer; cited from earlier work.
Another data set concerns HepG2. The procedure: The compound ((S)-ethyl 2-amino-5-((R)-1-ethoxy-1-oxo-3-(phosphonothio)propan-2-ylamino)-5-oxopentanoate monosodium salt) was tested for intracellular properties. In particular, experiments were conducted to determine the ability of the compound to enter into cells and generate glutathione. HepG2 were incubated with the compound with or without added bovine intestinal alkaline phosphatase (Sigma). Cells were scraped into SSA, vortexed and then spun.

In a further data set the test system is mice. The settings on record: doses up to 5 mmoles/animal.
Another data set concerns hamsters. The conditions noted are these: doses up to 5 mmoles/animal.
The conditions of data set [3]: co-administration of reduced glutathione, clinical trial; cited from earlier work.

Where “and” joins values, the source holds several entries; their conditions need not be identical. Identical values can stand only once.

T1 sequence (P19111 20-506): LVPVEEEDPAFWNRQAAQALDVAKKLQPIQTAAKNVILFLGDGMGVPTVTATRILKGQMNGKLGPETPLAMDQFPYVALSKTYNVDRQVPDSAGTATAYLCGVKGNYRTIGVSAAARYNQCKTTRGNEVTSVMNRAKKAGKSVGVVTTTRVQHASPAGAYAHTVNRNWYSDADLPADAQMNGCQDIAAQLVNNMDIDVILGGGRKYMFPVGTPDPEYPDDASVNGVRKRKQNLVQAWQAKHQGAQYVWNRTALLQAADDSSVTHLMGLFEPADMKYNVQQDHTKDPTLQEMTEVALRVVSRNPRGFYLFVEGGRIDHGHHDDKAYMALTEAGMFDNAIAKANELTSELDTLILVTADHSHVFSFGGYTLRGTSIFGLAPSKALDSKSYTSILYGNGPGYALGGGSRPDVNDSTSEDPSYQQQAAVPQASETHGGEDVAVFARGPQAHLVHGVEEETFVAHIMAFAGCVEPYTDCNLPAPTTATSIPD

On to `NCCCNCCSP(=O)(O)O` [AF, S-2-(3-aminopropylamino)ethylphosphorothioic acid, reference compound], for which the A412 in data set [1] (reaction 2: 10 μl 5 mM AF, 890 μl PBS, no CIAP, no DTNB, 10 min room temperature) is 0.00; in data set [1] (reaction 3: 10 μl 5 mM AF, 25 μl CIAP, 865 μl PBS, no DTNB, 10 min room temperature), 0.00; in data set [1] (reaction 4: 20 μl 5 mM AF, 50 μl CIAP (so in the source), 100 μl DTNB, 880 μl PBS, 10 min room temperature), 0.03; in data set [1] (reaction 5: 20 μl 5 mM AF, 50 μl CIAP, 100 μl DTNB, 830 μl PBS, 10 min room temperature) it was 0.34. Further, the “toxicity of chemotherapy and radiation therapy” value in data set [2] was “reduce toxicity”.

On to `CCOC(=O)[C@H](CSP(=O)([O-])O)NC(=O)CC[C@H](N)C(=O)OCC.[Na+]` [Compound 7, (S)-ethyl 2-amino-5-((R)-1-ethoxy-1-oxo-3-(phosphonothio)propan-2-ylamino)-5-oxopentanoate monosodium salt], for which the “time course of dephosphorylation (free sulfhydryl groups)” value in data set [1] (30 min. period, A412 readings at 3 min. intervals, conditions as in Table 3) is given as “time dependent”. For the same molecule, in data set [1] (conclusion from Table 3), the “dephosphorylation by alkaline phosphatase” value is “dephosphorylated by alkaline phosphatase to yield free reactive sulfhydryl groups”. Moreover, the A412 in data set [1] (with CIAP (50 μl): 10 μl 12.5 mM C7, 100 μl DTNB, 840 μl PBS, 10 min 37° C., listed as C7, monosodium salt) is 0.547 and 0.526; in data set [1] (without CIAP (negative reaction): 10 μl 12.5 mM C7, 100 μl DTNB, 890 μl PBS, 10 min 37° C., listed as C7, monosodium salt), 0.044 and 0.039. Further, the “increase in cellular GSH” value in the data set with HepG2 (HepG2, compound and alkaline phosphatase, in the presence of buthionine sulfoximine) is “greater than 5 fold”. The entry into cells result with HepG2 (HepG2, without prior hydrolysis of the phosphate group by alkaline phosphatase) is “did not enter cells”. The toxicity to cells entry in the data set on HepG2 (HepG2 incubated with compound with or without alkaline phosphatase) is on record as “did not exhibit any evidence of toxicity”. The “increase in GSH contents” value with HepG2 (HepG2 treated with the compound and alkaline phosphatase) is reported as 3.6 fold. Moreover, the overt toxicity result with mice and in the data set with hamsters was “no overt toxicity” throughout.

Turning to `N[C@@H](CCC(=O)N[C@@H](CS)C(=O)NCC(=O)O)C(=O)O` [GSH, glutathione, reference compound], the A412 in data set [1] (reaction 1, positive control: 10 μl 2 mM GSH, 100 μl DTNB, 890 μl PBS, no CIAP, 5 min room temperature) was 0.35. Further, the “neuropathy seen with oxaliplatin” value in data set [3] is given as “significantly reduce the neuropathy”.
